Results on one molecule are retold here after paper PMC6980506, “Comparative pharmacokinetics and pharmacodynamics of the advanced Retinol-Binding Protein 4 antagonist in dog and cynomolgus monkey” (PLoS ONE, 2020).

The nature of series [1]: Plasma protein binding by equilibrium dialysis, dog plasma. The class given is in vitro ADME. The conditions noted are these: pH 7.4, average and standard deviation, read-out: %PPB, plasma protein binding (converted). The protocol: In vitro ADME tests were conducted at AMRI, Albany, NY.
Background: In equilibrium dialysis free small molecules cross a membrane that holds back macromolecules.

The nature of series [2]: Metabolic clearance in cynomolgus monkey hepatocytes. It counts as in vitro ADME. The conditions noted are these: male, cryopreserved hepatocytes, Cyno hepatocytes, read-out: Hepatocyte CLint (intrinsic clearance). The protocol: All measurements were done in duplicate. Testosterone and 7-hydroxycoumarin were used as positive controls. Pooled cryopreserved human hepatocytes, cryopreserved male beagle dog hepatocytes, and cryopreserved male cynomolgus monkey hepatocytes were obtained from BioIVT (Baltimore, MD). Compound at 1 μM was incubated with 1 x 10^6 cells. Final DMSO concentration in the reaction mix was 0.1%. Aliquots (100 μL) of reaction mixtures were removed from the incubation plate at different timepoints and mixed with 150 μL of ice-cold acetonitrile. After incubation on ice for 15 min, the samples were centrifuged (3,600 rpm, 10 min, 4°C) to precipitate protein. The supernatants were diluted 1:1 (v/v) with water containing internal standards and subjected to the LC/MS analysis. Hepatic clearance was calculated using the well-stirred liver model

In the next series the test system is serum RBP4. Also on record: method as in PMID 29871924. The conditions noted are these: mice; cited from earlier work.
The test system of a further series is hERG channel. Also on record: method as in PMID 26181715. The conditions noted are these: cited from earlier work.
A short description of series [3]: Metabolic stability in dog liver microsomes. It counts as in vitro ADME. The conditions noted are these: male, beagle, pH 7.4, 1 mg/mL, read-out: Microsomal Stability (% Remaining at 30 min). The procedure:
(§1) All measurements were done in duplicate. Pooled mixed gender human donor microsomes, male beagle dog microsomes and male cynomolgus monkey were obtained from BioIVT (Baltimore, MD). […] A mixture containing 50 mM potassium phosphate buffer pH 7.4 and 1 mg/mL liver microsomes was pre-warmed for 10 min at 37°C in a shaking water bath, followed by the addition of test compound. Final DMSO concentration in the reaction mix was 0.1%. […] The final volume of the reaction mixture was 800 μL, containing 1 mg/mL liver microsomes, and 1 μM test compound. Aliquots (100 μL) of reaction mixtures were removed from the incubation plate at pre-defined timepoints and mixed with 150 μL of ice-cold acetonitrile, incubated on ice for 15 min, and samples were centrifuged (3,600 rpm, 10 min, 4°C) to precipitate protein. The supernatants were diluted 1:1 (v/v) with water containing the internal standard and subjected to the LC/MS analysis.

Series [4] is described as follows: Metabolic stability in human liver microsomes. It counts as in vitro ADME. The conditions noted are these: both sexes, pH 7.4, 1 mg/mL, read-out: Microsomal Stability (% Remaining at 30 min). The protocol: as §1

By hepatocyte CLint is commonly meant the capacity of the preparation to metabolise the compound, expressed as a volume cleared per time. A word on the share remaining: it is what is left of the initial amount, in per cent.

`Cc1cc(C(=O)O)nc(N2C[C@H]3C[C@@H](c4ccccc4C(F)(F)F)C[C@H]3C2)n1` [BPN-14136]: the fraction unbound at 4 h, 1 μM in series [1] was 0.003. Also, in series [2], the hepatocyte CLint at 1 μM came to 0.7 µL/min/1e6 cells. In the series with serum RBP4, the “serum RBP4 lowering” value is listed as 90%. The “off-target activity at the hERG channel” value with hERG channel is listed as “no significant off-target activity”. For the same molecule, the amount remaining at 0.5 h, 1 μM came to 93% in series [3] and 94% in series [4].
